Test results taken from article PMC2803217 (Journal of Experimental Botany, 2009).

Columns and labels:
[1] = target: T1, AtPMT1 (Arabidopsis thaliana, UniProt Q9XIH7); assay: competition of […]-sorbitol uptake in transgenic yeast; assay type: cell-based; settings: pH 5.0
T1 sequence (Q9XIH7 1-511): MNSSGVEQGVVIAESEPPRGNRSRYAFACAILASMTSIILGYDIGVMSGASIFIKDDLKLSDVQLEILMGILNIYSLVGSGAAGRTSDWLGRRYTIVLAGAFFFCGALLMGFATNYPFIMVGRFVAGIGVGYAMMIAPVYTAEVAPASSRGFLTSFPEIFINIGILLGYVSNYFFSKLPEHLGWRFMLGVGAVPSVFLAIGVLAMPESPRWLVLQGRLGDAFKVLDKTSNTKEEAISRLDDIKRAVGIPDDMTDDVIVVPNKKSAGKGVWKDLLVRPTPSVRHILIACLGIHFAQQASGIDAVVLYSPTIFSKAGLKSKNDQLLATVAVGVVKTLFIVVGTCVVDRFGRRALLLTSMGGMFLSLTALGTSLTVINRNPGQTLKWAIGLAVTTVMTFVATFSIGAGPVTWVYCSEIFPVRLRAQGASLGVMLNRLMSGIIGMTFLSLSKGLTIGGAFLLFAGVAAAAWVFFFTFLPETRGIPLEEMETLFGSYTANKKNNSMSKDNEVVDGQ

[2] = target: T2, AtPMT2 (Arabidopsis thaliana, UniProt Q9XIH6); assay: as above; assay type: cell-based; settings: pH 5.0
T2 sequence (Q9XIH6 1-511): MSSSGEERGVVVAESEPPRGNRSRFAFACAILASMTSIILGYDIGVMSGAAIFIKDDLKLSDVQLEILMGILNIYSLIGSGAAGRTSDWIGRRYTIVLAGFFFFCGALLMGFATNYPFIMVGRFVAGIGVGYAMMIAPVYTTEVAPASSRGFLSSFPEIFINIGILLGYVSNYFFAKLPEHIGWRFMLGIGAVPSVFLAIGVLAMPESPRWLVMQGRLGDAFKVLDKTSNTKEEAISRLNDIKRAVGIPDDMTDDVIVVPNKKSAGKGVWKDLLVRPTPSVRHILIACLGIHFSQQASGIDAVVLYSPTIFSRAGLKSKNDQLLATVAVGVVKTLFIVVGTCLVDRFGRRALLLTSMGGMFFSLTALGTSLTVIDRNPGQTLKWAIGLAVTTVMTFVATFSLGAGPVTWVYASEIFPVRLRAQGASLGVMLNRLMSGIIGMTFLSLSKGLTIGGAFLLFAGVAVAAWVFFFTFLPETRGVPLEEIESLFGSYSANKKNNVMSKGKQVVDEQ

[3] = substrate: OC[C@@H](O)[C@H](O)[C@@H](O)CO; assay: cells, lysate or membranes; settings: 50 mM sodium phosphate pH 5.0, H+ symport
[4] = substrate: OC[C@@H](O)[C@@H](O)[C@H](O)[C@@H](O)CO; assay: cells, lysate or membranes; settings: 50 mM sodium phosphate pH 5.0, H+ symport

Molecule: OC[C@@H](O)[C@@H](O)CO [erythritol]
- uptake of 0.1 mM 14C-sorbitol with 10 mM competitor [1]: In both strains, uptake of sorbitol was strongly reduced in the presence of xylitol
- uptake of 0.1 mM 14C-sorbitol with 10 mM competitor ([2]; 10 mM competitor): In both strains, uptake of sorbitol was strongly reduced in the presence of xylitol

Molecule: OC[C@@H](O)[C@@H](O)[C@H](O)[C@@H](O)CO [sorbitol]
- uptake of 0.1 mM 14C-sorbitol with 10 mM competitor ([2]; 10 mM unlabelled sorbitol): sorbitol was transported by both cell lines

B1: AtPMT2 (Arabidopsis thaliana) (protein)
chain: T2 sequence (Q9XIH6 1-511)
- Km [3]: 180 ± 10 µM

B2: AtPMT1 (Arabidopsis thaliana) (protein)
chain: T1 sequence (Q9XIH7 1-511)
- Km [4]: 770 ± 120 µM
- Km [3]: 140 ± 20 µM
